Data from patent publication US20250312468A1, “ANTI-PROTAC ANTIBODIES AND COMPLEXES” (Merck Patent GmbH, priority 2021, published 2025).

Columns and labels:
[1] = target: MIC1; experiment: SPR binding of PROTACs to immobilized antibody MIC1; conditions: binding of PROTACs to MIC1, steady-state model
Method: The binding affinities of hit antibodies MIC1 and MIC2 to a diverse set of VH032-based PROTACs (FIGS. 8A-8B) was determined by surface plasmon resonance (SPR) in a Biacore T200 instrument. The running buffer consist of PBS, 0.05% Tween-20, 2% DMSO and temperature and flow rate were set to 30° C. and 30 μL/min, respectively. The assay setup is depicted exemplarily in FIG. 7A. CM5 sensor chips were coated with antibody (=ligand; 2500 RU) using standard EDC/NHS chemistry. PROTACs (=analytes) were serially diluted (1 μM-1.9 nM) in running buffer, injected to the instrument in consecutive runs and were captured by the antibody resulting in an increase of the corresponding SPR response. After the association step (300 s), running buffer was injected for 600 s and the PROTAC dissociated from the antibody leading to signal decrease. After each run, residual bound PROTAC was removed from the immobilized antibody by injection of 10 mM glycine/HCl, pH 1.5 for 2×30 s regenerating the antibody for the next association and dissociation cycle. To compensate for matrix effects, the measured SPR response signal was subtracted by the analyte response to an inactivated (EDC/NHS, ethanol amine) reference surface omitting the ligand. Furthermore, a DMSO solvent correction was performed and analyte response was subtracted by the running buffer signal. […]

[2] = system: MV411 xenograft; experiment: MV411 xenograft efficacy study in female CB17 SCID mice; assay type: in vivo, mouse
Method: Human leukemic MV411 cells were xenografted in immunocompromised mice. Three million MV411 cells were injected subcutaneously in the left flank of untreated female CB17 SCID mice. Randomization of the animals in the different treatment groups and the initiation of the treatment was started after the average tumor size reached 45 mm^2. The control groups were treated with vehicle. The test groups were treated with 0.38 mg/kg GNE987 and 30 mg/kg CD33xMIC7+GNE987 (loaded with 0.38 mg/kg GNE987) once (at day 1). Further, two groups were treated twice, either with 30 mg/kg CD33xMIC7+GNE987 (loaded with 0.38 mg/kg GNE987) at day 1 followed by treatment with 0.38 mg/kg GNE987 at day 8 or with 0.38 mg/kg GNE987 at day 1 and 8. Additionally, one group received 30 mg/kg CD33xMIC5+GNE987 (loaded with 0.38 mg/kg GNE987) once (at day 1) and another group received the antibody control 30 mg/kg CD33xMIC7 without PROTAC once (at day 1). The individual groups were stopped before tumors reached a maximum tumor size (225 mm^2) (FIG. 49).

[3] = system: MDAMB468 cells; experiment: CellTiter-Glo cell viability assay (MIC2-based PAX); conditions: MDAMB468, complexes at 50% (1:1) loading, three independent experiments
Method: 2000 cells per well were seeded into white-opaque 384-well plates followed by overnight incubation in a humid chamber at 37° C. and 5% CO2. […] The assay was developed after 3 days if not otherwise stated using CellTiter-Glo Luminescent Cell Viability Assay as described in the manufacturer's protocol. In brief, the plates were equilibrated to room temperature for 30 minutes. 100 mL CellTiter-Glo Buffer were added to the CellTiter-Glo Substrate Flask and mixed well. 30 μL of the reagent was transferred to each well. After incubation for 3 minutes at room temperature while shaking at 550 rpm, the plate was incubated for another 10 minutes at room temperature. The luminescence was read on an Envision reader. The evaluation was performed using GraphPad Prism 8 by normalization of cells treated with sample to untreated cells. The data were fitted with 4 point logistic curve to determine the IC50 value.

[4] = mouse, in vivo
Method: After shaking/vortexing for 1 min, samples were filtered, (Captiva filtration on polypropylene filter, 0.45 μm pore size) and 120 μL of methanol:water (1:1, v/v) was added to the filtrate and stored at 4° C. until analysis and put in the autosampler before injection. The analysis was carried out on a LC-MS/MS system consisting of an UPLC coupled to a QTRAP 6500+ (Sciex) mass spectrometer. Mobile phase A was water with 0.1% formic acid and mobile phase B was methanol with 0.1% formic acid. […] The chromatography was performed on a Poroshell 120 EC-C18 column, 2.7 μm particles, 3×50 mm, from Agilent Technologies. […] The calibration curve for quantitation was based on standards ranging from 0.5 (Lower Limit of Quantitation) to 10000 (Upper Limit of Quantitation) ng/ml, with 5 calibration points minimum and minimum 75% of calibration standards to be within […] of their nominal values. The total antibody concentration was determined by ligand binding assay (LBA) based on the Meso Scale Diagnostics technology (MSD, LLC., Rockville, MD). […] After a final washing step, 150 μL of 2×MSD Read Buffer T with surfactant (MSD, #R92TC) was added to each well and plates were read on a MESO Quickplex SQ120 plate reader (MSD). […] The lower limit of quantification (LLOQ) was 50 ng/ml.

[5] = Pillow, T. H. et al., ChemMedChem 15 (2020) 17-25; cited from earlier work

Compound	Kd [1]	day post re-dosing where tumors started to grow again ([2]; 0.38 mg/kg GNE987 at day 1 and 8)	anti-tumor effect (in words) ([2]; dosed once at day 1)	day until which tumor growth was inhibited / tumors started to progress ([2]; single dose at day 1 (0.38 mg/kg GNE987 or 30 mg/kg PAX))	IC50 [3]	time after which PROTAC GNE987 concentration fell below LLOQ [4]	half-life of the PROTAC GNE987 ([4]; iv, 0.4 mg/kg)	half-life reported in literature [5]
Cc1ncsc1-c1ccc([C@H](C)NC(=O)[C@@H]2C[C@@H](O)CN2C(=O)[C@@H](NC(=O)COCCCOCCNC(=O)C[C@@H]2N=C(c3ccc(Cl)cc3)c3c(sc(C)c3C)-n3c(C)nnc32)C(C)(C)C)cc1 [ARV771]	6.5 nM							
Cc1ncsc1-c1ccc(CNC(=O)[C@@H]2C[C@@H](O)CN2C(=O)[C@@H](NC(=O)CCCCCCCCCCNC(=O)c2cc3c(cc2CS(C)(=O)=O)-c2cn(C)c(=O)c4[nH]cc(c24)CN3c2ncc(F)cc2F)C(C)(C)C)cc1 [GNE987]		~3 days	induced anti-tumor effects	~4 days	0.79 nM	25 h	5.8 h	2.8 h
